Tests used:
UACC-62 = assay: NCI screen, growth of human tumor cells: Melanoma UACC-62; type: cell-based; details: UACC-62 (Melanoma), 10^−4 molar
Summary of the method: (§1)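 At least 60 data points describe each compound tested by NCI. Cancer type, molar concentration in the screen and percent growth make up the recorded data.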

ACHN = assay: NCI screen, growth of human tumor cells: Renal Cancer ACHN; type: cell-based; details: ACHN (Renal Cancer), 10^−4 molar
Summary of the method: as §1

CCRF-CEM = assay: NCI screen, growth of human tumor cells: Leukemia CCRF-CEM; type: cell-based; details: CCRF-CEM (Leukemia), 10^−4 molar
Summary of the method: as §1

K562 = assay: NCI screen, growth of human tumor cells: Leukemia K562; type: cell-based; details: K562 (Leukemia), 10^−4 molar
Summary of the method: as §1

CAKI-1 = assay: NCI screen, growth of human tumor cells: Renal Cancer CAKI-1; type: cell-based; details: CAKI-1 (Renal Cancer), 10^−4 molar
Summary of the method: as §1

[1] = test system: lymphocytic leukemia, lymphoid leukemia, melanocarcinoma, human breast xenograft and ovarian carcinoma; details: disclosure of U.S. Pat. No. 4,950,768; cited from earlier work
MOLT-4 = assay: NCI screen, growth of human tumor cells: Leukemia MOLT-4; type: cell-based; details: MOLT-4 (Leukemia), 10^−4 molar
Summary of the method: as §1

SNB-19 = assay: NCI screen, growth of human tumor cells: CNS Cancer SNB-19; type: cell-based; details: SNB-19 (CNS Cancer), 10^−4 molar
Summary of the method: as §1

HOP-92 = assay: NCI screen, growth of human tumor cells: Non-Small Cell Lung HOP-92; type: cell-based; details: HOP-92 (Non-Small Cell Lung), 10^−4 molar
Summary of the method: as §1

786-0 = assay: NCI screen, growth of human tumor cells: Renal Cancer 786-0; type: cell-based; details: 786-0 (Renal Cancer), 10^−4 molar
Summary of the method: as §1

SNB-75 = assay: NCI screen, growth of human tumor cells: CNS Cancer SNB-75; type: cell-based; details: SNB-75 (CNS Cancer), 10^−4 molar
Summary of the method: as §1

NCI-H460 = assay: NCI screen, growth of human tumor cells: Non-Small Cell Lung NCI-H460; type: cell-based; details: NCI-H460 (Non-Small Cell Lung), 10^−4 molar
Summary of the method: as §1

MALME-3M = assay: NCI screen, growth of human tumor cells: Melanoma MALME-3M; type: cell-based; details: MALME-3M (Melanoma), 10^−4 molar
Summary of the method: as §1

SF-295 = assay: NCI screen, growth of human tumor cells: CNS Cancer SF-295; type: cell-based; details: SF-295 (CNS Cancer), 10^−4 molar
Summary of the method: as §1

OVCAR-4 = assay: NCI screen, growth of human tumor cells: Ovarian Cancer OVCAR-4; type: cell-based; details: OVCAR-4 (Ovarian Cancer), 10^−4 molar
Summary of the method: as §1

LOXIMVI = assay: NCI screen, growth of human tumor cells: Melanoma LOXIMVI; type: cell-based; details: LOXIMVI (Melanoma), 10^−4 molar
Summary of the method: as §1

MDA-N = assay: NCI screen, growth of human tumor cells: Breast Cancer MDA-N; type: cell-based; details: 10^−4 molar
Method: (§2) In the NCI screening process, each compound was tested and described by a minimum of 60 data points. The test data include, but are not limited to the type of cancer, the molar concentration used in the screen, and the percent growth of the cancer. In some cases, NMR and elemental analysis were used for structural assignment.

HCT-15 = assay: NCI screen, growth of human tumor cells: Colon Cancer HCT-15; type: cell-based; details: HCT-15 (Colon Cancer), 10^−4 molar
Summary of the method: as §1

MCF7/ADR-RES = assay: NCI screen, growth of human tumor cells: Breast Cancer MCF7/ADR-RES; type: cell-based; details: MCF7/ADR-RES (Breast Cancer), 10^−4 molar
Summary of the method: as §1

OVCAR-3 = assay: NCI screen, growth of human tumor cells: Ovarian Cancer OVCAR-3; type: cell-based; details: OVCAR-3 (Ovarian Cancer), 10^−4 molar
Summary of the method: as §1

U-251 = assay: NCI screen, growth of human tumor cells: CNS Cancer U-251; type: cell-based; details: U-251 (CNS Cancer), 10^−4 molar
Summary of the method: as §1

MDA-MB-231/ATCC = assay: NCI screen, growth of human tumor cells: Breast Cancer MDA-MB-231/ATCC; type: cell-based; details: MDA-MB-231/ATCC (Breast Cancer), 10^−4 molar
Summary of the method: as §1

SK-MEL-5 = assay: NCI screen, growth of human tumor cells: Melanoma SK-MEL-5; type: cell-based; details: SK-MEL-5 (Melanoma), 10^−4 molar
Summary of the method: as §1

UACC-257 = assay: NCI screen, growth of human tumor cells: Melanoma UACC-257; type: cell-based; details: UACC-257 (Melanoma), 10^−4 molar
Summary of the method: as §1

SF-539 = assay: NCI screen, growth of human tumor cells: CNS Cancer SF-539; type: cell-based; details: SF-539 (CNS Cancer), 10^−4 molar
Summary of the method: as §1

SF-268 = assay: NCI screen, growth of human tumor cells: CNS Cancer SF-268; type: cell-based; details: SF-268 (CNS Cancer), 10^−4 molar
Summary of the method: as §1

human cancer cells = assay: NCI screen summary over the cancers tested (negative growth of human cancer cells); type: cell-based; details: 10^−4 M conc.; cancers with negative growth / cancers tested
Method: as §2
The derivatives in the tables are grouped using the same category as in the tables 1-6.

MCF 7 = assay: NCI screen, growth of human tumor cells: Breast Cancer MCF 7; type: cell-based; details: MCF 7 (Breast Cancer), 10^−4 molar
Summary of the method: as §1

SK-MEL-2 = assay: NCI screen, growth of human tumor cells: Melanoma SK-MEL-2; type: cell-based; details: SK-MEL-2 (Melanoma), 10^−4 molar
Summary of the method: as §1

IGROVI = assay: NCI screen, growth of human tumor cells: Ovarian Cancer IGROVI; type: cell-based; details: IGROVI (Ovarian Cancer), 10^−4 molar
Summary of the method: as §1

OVCAR-8 = assay: NCI screen, growth of human tumor cells: Ovarian Cancer OVCAR-8; type: cell-based; details: OVCAR-8 (Ovarian Cancer), 10^−4 molar
Summary of the method: as §1

EKVX = assay: NCI screen, growth of human tumor cells: Non-Small Cell Lung EKVX; type: cell-based; details: EKVX (Non-Small Cell Lung), 10^−4 molar
Summary of the method: as §1

NCI-H23 = assay: NCI screen, growth of human tumor cells: Non-Small Cell Lung NCI-H23; type: cell-based; details: NCI-H23 (Non-Small Cell Lung), 10^−4 molar
Summary of the method: as §1

M14 = assay: NCI screen, growth of human tumor cells: Melanoma M14; type: cell-based; details: M14 (Melanoma), 10^−4 molar
Summary of the method: as §1

HCC-2998 = assay: NCI screen, growth of human tumor cells: HCC-2998 (listed under Non-Small Cell Lung); type: cell-based; details: HCC-2998 (under Non-Small Cell Lung), 10^−4 molar
Summary of the method: as §1

HT29 = assay: NCI screen, growth of human tumor cells: Colon Cancer HT29; type: cell-based; details: HT-29, 10^−4 molar
Summary of the method: as §1

DU-145 = assay: NCI screen, growth of human tumor cells: Prostate Cancer DU-145; type: cell-based; details: DU-145 (Prostate Cancer), 10^−4 molar
Summary of the method: as §1

HCT-116 = assay: NCI screen, growth of human tumor cells: Colon Cancer HCT-116; type: cell-based; details: HCT-116 (Colon Cancer), 10^−4 molar
Summary of the method: as §1

NCI-H522 = assay: NCI screen, growth of human tumor cells: Non-Small Cell Lung NCI-H522; type: cell-based; details: NCI-H522 (Non-Small Cell Lung), 10^−4 molar
Summary of the method: as §1

[2] = Water solubility noted at isolation; type: physicochemical; details: observation on the isolated product
Method: To a solution of 0.8 g of ethylene bromomethanedisulfonate (91-5) in 50 mL of glyme with 0.2 g of NaH was added followed by 0.6 g of the anhydride of 1,2-ethanedisulfonic acid. After 24 hrs, the solvent was removed and the residue taken up in 10 mL of acetone to give 0.5 g of water soluble 96-13.
To a solution of 0.58 g of ethylene methanedisulfonate in 50 mL of glyme and 0.2 g of NaH was added 0.65 g of 8-quinolinesulfonyl chloride. After 3 hrs., the solution was filtered, and the solid was washed with CH2Cl2 and dried overnight to give 1.155 g of a mixture of NaCl, Na2CO3, and product. A sample was H2O soluble and the calculated yield, based on assumption of the NaCl and Na2CO3, was 0.848 g (71%) of 97-4.

SN12C = assay: NCI screen, growth of human tumor cells: Renal Cancer SN12C; type: cell-based; details: SN12C (Renal Cancer), 10^−4 molar
Summary of the method: as §1

MDA-MB-435 = assay: NCI screen, growth of human tumor cells: Breast Cancer MDA-MB-435; type: cell-based; details: MDA-MB-435 (Breast Cancer), 10^−4 molar
Summary of the method: as §1

KM12 = assay: NCI screen, growth of human tumor cells: Colon Cancer KM12; type: cell-based; details: KM12 (Colon Cancer), 10^−4 molar
Summary of the method: as §1

Compound: O=S1(=O)CS(=O)(=O)OCCO1 [NSC 348948, ethylene methanedisulfonate]
- percent of growth of human tumor cells (UACC-62): −13%
- percent of growth of human tumor cells (ACHN): 22%
- percent of growth of human tumor cells (CCRF-CEM): −3%
- percent of growth of human tumor cells (K562): 5%
- melting point: 176 to 180 °C
- percent of growth of human tumor cells (CAKI-1): −6%
- effectiveness in the treatment of mice cancers [1]: effective
- percent of growth of human tumor cells (MOLT-4): 5%
- percent of growth of human tumor cells (SNB-19): 18%
- percent of growth of human tumor cells (HOP-92): 6%
- percent of growth of human tumor cells (786-0): 24%
- percent of growth of human tumor cells (SNB-75): 18%
- percent of growth of human tumor cells (NCI-H460): 6%

Compound: O=S1(=O)OCCOS(=O)(=O)C1c1cccc2cccnc12 [NSC 698122, ethylene 8-quinolylmethanedisulfonate]
- percent of growth of human tumor cells (MALME-3M): 29%
- percent of growth of human tumor cells (SF-295): 18%
- percent of growth of human tumor cells (OVCAR-4): 30%
- percent of growth of human tumor cells (LOXIMVI): −43%
- percent of growth of human tumor cells (UACC-62): −46%
- percent of growth of human tumor cells (MDA-N): 10%
- percent of growth of human tumor cells (HCT-15): 18%
- percent of growth of human tumor cells (MCF7/ADR-RES): −5%
- percent of growth of human tumor cells (OVCAR-3): 25%
- percent of growth of human tumor cells (U-251): −53%
- percent of growth of human tumor cells (MDA-MB-231/ATCC): 26%
- percent of growth of human tumor cells (SK-MEL-5): 15%
- percent of growth of human tumor cells (UACC-257): 13%
- percent of growth of human tumor cells (SF-539): 30%
- percent of growth of human tumor cells (SF-268): 24%
- Percentage of cancers showing negative growth cancers tested (human cancer cells): 10^−4 M conc. = 8/31 = 25.8%
- percent of growth of human tumor cells (MCF 7): 12%
- percent of growth of human tumor cells (SK-MEL-2): 24%
- percent of growth of human tumor cells (IGROVI): 17%
- percent of growth of human tumor cells (OVCAR-8): 19%
- percent of growth of human tumor cells (EKVX): 28%
- percent of growth of human tumor cells (NCI-H23): 27%
- percent of growth of human tumor cells (M14): 10%
- percent of growth of human tumor cells (HCC-2998): −12%
- % Growth (HT29): −64%
- percent of growth of human tumor cells (DU-145): 2%
- percent of growth of human tumor cells (HCT-116): 16%
- percent of growth of human tumor cells (NCI-H522): −40%
- water solubility [2]: H2O soluble
- percent of growth of human tumor cells (SN12C): 28%
- percent of growth of human tumor cells (MDA-MB-435): 19%
- percent of growth of human tumor cells (NCI-H460): −40%
- percent of growth of human tumor cells (KM12): 7%
